In ChEMBL document CHEMBL5729797, “Compounds having tetrahydroindolizine-1-carboxamide as BCL-2 inhibitors” (2023):

Columns and labels:
Bcl-2-like protein 1 = Bcl-2-like protein 1 (Homo sapiens, UniProt Q07817); assay: (§1) BCL-XL TR-FRET Assay: The following assay concentrations and times were used: 10.5 ng BCL-XL, 5 μl of 1:100 anti-His Tb-labeled donor, 5 μl of 1:100 Dye-labeled acceptor, 5 μl of 1:80 BCL-XL Peptide Ligand, and 2 μl of test compound, with 60 min incubation time. The results of the assay were read using a Clariostar (BMG Labtech) plate reader with the following parameters: TR FRET, 340ex/620 and 665em; 60 μsec Delay; and 500 μsec integration.
[1] = biological target: Apoptosis regulator Bcl-2 (Homo sapiens, UniProt P10415); assay: as §1, with “BCL-2 TR-FRET” for “BCL-XL TR-FRET”, “used: 3” for “used: 10.5”, “ng BCL-2,” for “ng BCL-XL,”, “of 1:40 BCL-2” for “of 1:80 BCL-XL”, “2 ul” for “2 μl”
Chain of Apoptosis regulator Bcl-2 (P10415 whole entry): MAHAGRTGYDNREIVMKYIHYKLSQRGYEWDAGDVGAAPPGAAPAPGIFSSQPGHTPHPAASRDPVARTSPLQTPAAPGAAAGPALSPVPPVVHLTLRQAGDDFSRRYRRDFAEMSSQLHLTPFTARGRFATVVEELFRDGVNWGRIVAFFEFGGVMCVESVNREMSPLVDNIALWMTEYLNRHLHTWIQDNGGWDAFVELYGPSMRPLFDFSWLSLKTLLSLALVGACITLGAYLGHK

Chain of Bcl-2-like protein 1 (Q07817 whole entry): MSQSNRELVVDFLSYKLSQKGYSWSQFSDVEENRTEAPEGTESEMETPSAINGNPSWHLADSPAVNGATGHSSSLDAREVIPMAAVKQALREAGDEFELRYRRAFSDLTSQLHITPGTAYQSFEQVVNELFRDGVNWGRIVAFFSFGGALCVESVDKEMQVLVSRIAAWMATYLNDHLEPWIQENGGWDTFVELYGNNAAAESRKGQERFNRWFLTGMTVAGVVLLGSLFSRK

For `O=C(c1cc(-c2cc3c(cc2C(=O)N2Cc4ccccc4C[C@H]2CN2CCOCC2)OCO3)n2c1CCCC2)N(Cc1ccccc1F)c1ccc(O)cc1`, the IC50 (Bcl-2-like protein 1) was < 2 µM and the IC50 [1] was < 5 nM.

For `O=C(c1cc(-c2cc3c(cc2C(=O)N2Cc4ccccc4C[C@H]2CN2CCOCC2)OCO3)n2c1CCCC2)N(Cc1ccc(F)cc1)c1ccc(O)cc1`, the IC50 (Bcl-2-like protein 1) was > 4 µM.
